How the values were obtained:
[1] = biological target: MAPK14 (murine); assay: Inhibition of MAPK14 Kinase Activity
[2] = biological target: MAPK14 (human) (UniProt Q16539); assay: Inhibition of LPS Induced TNF-alpha Release in Human PBMC
MAPK14 (human), sequence (Q16539 whole entry, looked up): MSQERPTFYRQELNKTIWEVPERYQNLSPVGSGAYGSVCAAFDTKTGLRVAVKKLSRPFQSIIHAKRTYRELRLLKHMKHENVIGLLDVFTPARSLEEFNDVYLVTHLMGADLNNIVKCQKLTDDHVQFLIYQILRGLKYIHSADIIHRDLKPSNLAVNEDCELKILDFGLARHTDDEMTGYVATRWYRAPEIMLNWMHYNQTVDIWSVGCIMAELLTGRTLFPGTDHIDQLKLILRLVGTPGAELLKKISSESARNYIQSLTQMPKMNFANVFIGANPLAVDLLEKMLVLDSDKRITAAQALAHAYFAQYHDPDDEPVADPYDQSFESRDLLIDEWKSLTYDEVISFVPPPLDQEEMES

| IC50 [1] | IC50 [2] | SMILES |
| --- | --- | --- |
| 450 nM |  | CN1CCC(O)(c2nc(-c3ccc(F)cc3)c(-c3ccncc3)s2)CC1 |
| 4 nM |  | C[C@H](Nc1cc(-c2sc(C3CCNCC3)nc2-c2ccc(F)cc2)ccn1)c1ccccc1 |
| 11 nM | 9 nM | Fc1ccc(-c2nc(C3CCNCC3)oc2-c2ccnc(NC3CCCCC3)n2)cc1 |
| 6 nM | 1 nM | C[C@@H](Nc1nccc(-n2c(-c3ccc(F)cc3)nc3nc(N4CCN(C)CC4)ccc32)n1)c1ccccc1 |
| 15 nM | 0.2 nM | Fc1ccc(-c2nc(C3CCNCC3)oc2-c2ccnc(NC3CCCCC3)c2)cc1 |

| SMILES | IC50 [1] | IC50 [2] |
| --- | --- | --- |
| CN1CCC(O)(c2nc(-c3ccc(F)cc3)c(-c3ccncc3)[nH]2)CC1 | 90 nM |  |
| CN1CCC(O)(c2nc(-c3ccc(F)cc3)c(-c3ccncc3)o2)CC1 | 350 nM |  |
